Laboratory results taken from ChEMBL document CHEMBL1201862, “PubChem BioAssay data set” (2004).
Each block holds one molecule with its values, some of them ahead of it. Active and inactive are the calls of the source. For most assays here, no stated cut-off is given here; in the data, actives have a measured IC50 and inactives only a lower limit.

Assays:
Format in all cases: functional
[1] = target: T1, Corticotropin-releasing factor receptor 2/Corticotropin-releasing factor-binding protein (Homo sapiens, UniProt P24387+Q13324); assay: Dose Response confirmation of uHTS hits for small molecule antagonists of the CRF-binding protein and CRF-R2 receptor complex.; details: read-out: IC50_Mean
T1 sequence (Q13324 whole entry): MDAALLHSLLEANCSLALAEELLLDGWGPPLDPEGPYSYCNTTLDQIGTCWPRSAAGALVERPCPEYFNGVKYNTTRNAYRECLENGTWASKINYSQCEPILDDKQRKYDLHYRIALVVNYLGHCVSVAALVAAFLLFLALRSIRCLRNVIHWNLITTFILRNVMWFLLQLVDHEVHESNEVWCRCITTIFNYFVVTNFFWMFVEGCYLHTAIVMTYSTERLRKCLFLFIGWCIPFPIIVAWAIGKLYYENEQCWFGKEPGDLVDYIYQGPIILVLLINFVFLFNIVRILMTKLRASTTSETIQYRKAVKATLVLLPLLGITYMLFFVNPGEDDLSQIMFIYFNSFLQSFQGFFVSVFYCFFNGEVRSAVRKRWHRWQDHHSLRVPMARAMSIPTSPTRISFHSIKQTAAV
T1 sequence (P24387 whole entry): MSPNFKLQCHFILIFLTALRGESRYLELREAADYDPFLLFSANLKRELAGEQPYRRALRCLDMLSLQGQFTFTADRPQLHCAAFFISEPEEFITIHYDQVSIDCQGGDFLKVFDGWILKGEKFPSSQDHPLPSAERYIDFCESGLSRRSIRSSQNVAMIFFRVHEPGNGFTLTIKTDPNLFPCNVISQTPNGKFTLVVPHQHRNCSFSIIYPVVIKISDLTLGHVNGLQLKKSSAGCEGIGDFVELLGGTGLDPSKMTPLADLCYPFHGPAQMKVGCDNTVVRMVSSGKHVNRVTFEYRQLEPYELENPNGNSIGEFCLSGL

[2] = target: T1, Corticotropin-releasing factor receptor 2/Corticotropin-releasing factor-binding protein; assay: activators of CRF receptor 2 with binding protein – uHTS hits, confirmation (AID 602473); details: read-out: EC50_Mean
[3] = target: Apoptotic protease-activating factor 1 (Homo sapiens, UniProt O14727)
Cysteine protease ATG4B = Cysteine protease ATG4B (Homo sapiens, UniProt Q9Y4P1);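 further: Fluorescence-based dose-response confirmation assay measuring inhibition of ATG4B activity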
Leucine aminopeptidase = target: T2, Leucine aminopeptidase (Plasmodium falciparum 3D7, UniProt Q8IL11); assay: P. falciparum M17LAP inhibitors, primary screen, biochemical, fluorogenic H-Leu-NHMec substrate, 1536-well (AID 1619)
T2 sequence (Q8IL11 whole entry): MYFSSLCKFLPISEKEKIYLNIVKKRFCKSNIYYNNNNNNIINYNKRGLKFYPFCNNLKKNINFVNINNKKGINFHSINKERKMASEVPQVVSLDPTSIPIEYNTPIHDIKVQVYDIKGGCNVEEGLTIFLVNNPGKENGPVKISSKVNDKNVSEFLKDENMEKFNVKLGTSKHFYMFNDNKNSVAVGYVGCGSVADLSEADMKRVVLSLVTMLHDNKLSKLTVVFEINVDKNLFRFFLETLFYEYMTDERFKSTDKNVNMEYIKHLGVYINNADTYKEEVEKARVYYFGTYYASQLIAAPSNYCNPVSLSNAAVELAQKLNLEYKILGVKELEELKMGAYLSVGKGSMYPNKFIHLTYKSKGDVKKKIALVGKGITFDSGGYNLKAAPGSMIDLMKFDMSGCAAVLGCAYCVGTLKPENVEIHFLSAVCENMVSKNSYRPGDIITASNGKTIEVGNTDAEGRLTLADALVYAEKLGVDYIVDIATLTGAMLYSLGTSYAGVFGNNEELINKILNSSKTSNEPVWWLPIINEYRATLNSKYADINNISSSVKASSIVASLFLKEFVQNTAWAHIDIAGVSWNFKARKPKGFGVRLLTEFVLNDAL

Phospholipase A2 = Phospholipase A2 (Homo sapiens, UniProt P04054);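 further: confirmatory dose-response counterscreen on phospholipase A2, testing hits that came from an ultra-high-throughput screen for ATG4B inhibitors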
[4] = target: T3, Sentrin-specific protease 8 (Homo sapiens, UniProt Q96LD8); assay: inhibition of human SENP8 cleavage activity – biochemical, luminescence, SAR follow-up (AID 504501)
T3 sequence (Q96LD8 whole entry): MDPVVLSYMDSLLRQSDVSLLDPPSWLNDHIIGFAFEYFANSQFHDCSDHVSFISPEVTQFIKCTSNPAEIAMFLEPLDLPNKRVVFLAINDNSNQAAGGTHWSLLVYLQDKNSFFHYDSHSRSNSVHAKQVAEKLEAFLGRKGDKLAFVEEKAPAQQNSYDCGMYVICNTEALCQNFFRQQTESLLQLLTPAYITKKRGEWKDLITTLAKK

[5] = target: T4, Sentrin-specific protease 6 (Homo sapiens, UniProt Q9GZR1); assay: SAR Analysis of small molecule inhibitors of Sentrin-specific protease 6 (SENP6) using a Luminescent assay. [Related pubchem assays (depositor defined):AID2582, AID2599]
T4 sequence (Q9GZR1 whole entry): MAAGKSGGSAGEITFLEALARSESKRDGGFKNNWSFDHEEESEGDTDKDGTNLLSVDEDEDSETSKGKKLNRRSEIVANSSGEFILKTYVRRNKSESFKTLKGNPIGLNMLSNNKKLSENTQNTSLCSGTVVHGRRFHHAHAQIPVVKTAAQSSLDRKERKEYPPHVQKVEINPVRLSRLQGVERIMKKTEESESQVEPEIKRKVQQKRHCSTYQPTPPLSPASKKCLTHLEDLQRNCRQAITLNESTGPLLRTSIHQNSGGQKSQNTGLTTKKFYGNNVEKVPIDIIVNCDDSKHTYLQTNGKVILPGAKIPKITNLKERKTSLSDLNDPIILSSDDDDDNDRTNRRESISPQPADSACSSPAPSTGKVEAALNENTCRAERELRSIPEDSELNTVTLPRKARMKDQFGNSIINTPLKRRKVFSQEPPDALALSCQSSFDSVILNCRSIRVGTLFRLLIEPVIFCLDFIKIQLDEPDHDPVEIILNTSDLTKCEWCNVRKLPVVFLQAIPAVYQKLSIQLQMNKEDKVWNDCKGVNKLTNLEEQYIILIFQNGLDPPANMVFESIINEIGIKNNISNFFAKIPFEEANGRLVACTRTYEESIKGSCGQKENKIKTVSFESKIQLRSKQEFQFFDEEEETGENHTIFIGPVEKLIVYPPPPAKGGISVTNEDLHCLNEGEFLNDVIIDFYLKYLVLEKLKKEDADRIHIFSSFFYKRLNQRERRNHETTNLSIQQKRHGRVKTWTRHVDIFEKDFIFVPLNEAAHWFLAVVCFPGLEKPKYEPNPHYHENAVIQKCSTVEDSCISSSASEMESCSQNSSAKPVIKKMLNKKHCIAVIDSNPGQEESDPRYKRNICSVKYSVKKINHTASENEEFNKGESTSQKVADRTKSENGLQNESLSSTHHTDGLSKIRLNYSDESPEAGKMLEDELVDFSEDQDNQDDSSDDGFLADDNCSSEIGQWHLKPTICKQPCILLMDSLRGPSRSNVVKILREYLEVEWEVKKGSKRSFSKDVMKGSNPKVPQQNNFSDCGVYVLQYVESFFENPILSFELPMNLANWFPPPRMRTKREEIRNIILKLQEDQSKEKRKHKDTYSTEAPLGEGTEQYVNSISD

[6] = target: T5, Sentrin-specific protease 7 (Homo sapiens, UniProt Q9BQF6); assay: inhibition of human SENP7 cleavage activity – biochemical, luminescence, SAR follow-up (AID 504497)
T5 sequence (Q9BQF6 whole entry): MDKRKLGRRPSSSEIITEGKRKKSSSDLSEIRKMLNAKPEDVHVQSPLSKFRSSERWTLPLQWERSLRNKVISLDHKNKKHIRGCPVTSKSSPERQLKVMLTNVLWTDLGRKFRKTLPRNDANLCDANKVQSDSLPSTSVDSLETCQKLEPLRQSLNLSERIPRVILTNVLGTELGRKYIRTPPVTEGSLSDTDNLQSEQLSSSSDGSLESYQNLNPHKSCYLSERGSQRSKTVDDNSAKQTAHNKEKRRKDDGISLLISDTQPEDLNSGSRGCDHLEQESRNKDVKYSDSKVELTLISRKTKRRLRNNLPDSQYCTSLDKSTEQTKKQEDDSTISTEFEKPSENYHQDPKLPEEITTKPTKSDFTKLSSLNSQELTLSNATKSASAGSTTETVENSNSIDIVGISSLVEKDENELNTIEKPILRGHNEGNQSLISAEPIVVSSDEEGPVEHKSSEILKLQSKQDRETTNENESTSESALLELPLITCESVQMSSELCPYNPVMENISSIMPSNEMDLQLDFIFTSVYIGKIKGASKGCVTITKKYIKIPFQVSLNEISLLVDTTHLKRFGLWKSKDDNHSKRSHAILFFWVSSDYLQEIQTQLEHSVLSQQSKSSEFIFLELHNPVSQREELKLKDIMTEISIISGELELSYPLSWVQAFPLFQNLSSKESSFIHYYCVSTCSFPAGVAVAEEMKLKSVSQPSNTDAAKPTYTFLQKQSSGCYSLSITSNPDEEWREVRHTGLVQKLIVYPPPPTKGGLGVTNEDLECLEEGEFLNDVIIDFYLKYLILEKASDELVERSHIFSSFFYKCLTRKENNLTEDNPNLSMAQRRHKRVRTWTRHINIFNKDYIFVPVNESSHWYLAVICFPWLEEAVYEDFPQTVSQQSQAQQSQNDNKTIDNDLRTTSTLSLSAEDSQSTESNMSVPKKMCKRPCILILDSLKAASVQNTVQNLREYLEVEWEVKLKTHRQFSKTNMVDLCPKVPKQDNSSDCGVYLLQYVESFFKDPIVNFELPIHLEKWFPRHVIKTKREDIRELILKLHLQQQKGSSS

Caspase-3 = target: T6, Caspase-3 (Homo sapiens, UniProt P42574); assay: SAR Analysis of small molecule inhibitors of Sentrin-specific proteases (SENPs) using a Caspase-3 Selectivity assay. [Related pubchem assays (depositor defined):AID2540, AID2599, AID434973, AID489001]
T6 sequence (P42574 whole entry): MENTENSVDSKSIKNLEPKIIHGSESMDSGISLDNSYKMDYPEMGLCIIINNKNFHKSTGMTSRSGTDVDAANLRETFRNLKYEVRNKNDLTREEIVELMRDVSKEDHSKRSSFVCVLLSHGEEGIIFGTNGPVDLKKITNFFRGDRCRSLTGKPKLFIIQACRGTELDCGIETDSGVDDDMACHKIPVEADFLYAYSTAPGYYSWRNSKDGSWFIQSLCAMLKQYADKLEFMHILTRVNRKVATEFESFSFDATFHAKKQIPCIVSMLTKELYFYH

Chain of Phospholipase A2 (P04054 whole entry): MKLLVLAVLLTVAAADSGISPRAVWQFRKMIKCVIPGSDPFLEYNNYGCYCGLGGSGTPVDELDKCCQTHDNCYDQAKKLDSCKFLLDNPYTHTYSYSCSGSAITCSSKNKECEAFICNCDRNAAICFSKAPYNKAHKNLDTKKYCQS
Chain of Apoptotic protease-activating factor 1 (O14727 whole entry): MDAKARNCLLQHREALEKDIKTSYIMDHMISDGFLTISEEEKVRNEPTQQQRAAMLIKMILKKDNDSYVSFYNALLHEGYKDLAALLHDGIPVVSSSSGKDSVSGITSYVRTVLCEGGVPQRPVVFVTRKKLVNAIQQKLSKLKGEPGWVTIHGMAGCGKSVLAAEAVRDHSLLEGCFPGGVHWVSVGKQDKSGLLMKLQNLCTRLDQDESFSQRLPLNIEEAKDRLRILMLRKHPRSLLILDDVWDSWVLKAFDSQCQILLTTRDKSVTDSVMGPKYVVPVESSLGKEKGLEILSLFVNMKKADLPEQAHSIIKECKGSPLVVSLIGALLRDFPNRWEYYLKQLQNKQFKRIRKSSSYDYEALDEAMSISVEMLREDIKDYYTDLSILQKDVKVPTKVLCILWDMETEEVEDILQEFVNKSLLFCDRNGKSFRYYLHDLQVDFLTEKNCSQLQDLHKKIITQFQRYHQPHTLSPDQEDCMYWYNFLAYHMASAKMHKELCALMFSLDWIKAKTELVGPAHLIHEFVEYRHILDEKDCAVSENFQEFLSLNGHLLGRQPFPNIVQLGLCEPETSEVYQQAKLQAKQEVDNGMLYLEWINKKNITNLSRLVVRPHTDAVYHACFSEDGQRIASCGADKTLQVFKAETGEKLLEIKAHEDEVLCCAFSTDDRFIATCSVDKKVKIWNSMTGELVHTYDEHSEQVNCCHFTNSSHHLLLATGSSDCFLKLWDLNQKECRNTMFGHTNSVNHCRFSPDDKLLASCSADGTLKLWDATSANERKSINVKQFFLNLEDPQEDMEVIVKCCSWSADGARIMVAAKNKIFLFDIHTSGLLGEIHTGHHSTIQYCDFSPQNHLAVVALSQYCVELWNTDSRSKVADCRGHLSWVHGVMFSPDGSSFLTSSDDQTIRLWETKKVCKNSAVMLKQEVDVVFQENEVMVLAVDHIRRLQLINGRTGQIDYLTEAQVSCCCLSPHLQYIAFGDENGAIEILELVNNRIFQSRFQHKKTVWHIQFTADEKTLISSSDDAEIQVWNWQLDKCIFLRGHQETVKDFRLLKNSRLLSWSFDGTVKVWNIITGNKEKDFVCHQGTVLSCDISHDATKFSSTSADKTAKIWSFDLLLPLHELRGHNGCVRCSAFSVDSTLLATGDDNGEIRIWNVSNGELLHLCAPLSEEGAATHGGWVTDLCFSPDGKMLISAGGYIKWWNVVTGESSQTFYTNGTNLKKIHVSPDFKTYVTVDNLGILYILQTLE
Chain of Cysteine protease ATG4B (Q9Y4P1 whole entry): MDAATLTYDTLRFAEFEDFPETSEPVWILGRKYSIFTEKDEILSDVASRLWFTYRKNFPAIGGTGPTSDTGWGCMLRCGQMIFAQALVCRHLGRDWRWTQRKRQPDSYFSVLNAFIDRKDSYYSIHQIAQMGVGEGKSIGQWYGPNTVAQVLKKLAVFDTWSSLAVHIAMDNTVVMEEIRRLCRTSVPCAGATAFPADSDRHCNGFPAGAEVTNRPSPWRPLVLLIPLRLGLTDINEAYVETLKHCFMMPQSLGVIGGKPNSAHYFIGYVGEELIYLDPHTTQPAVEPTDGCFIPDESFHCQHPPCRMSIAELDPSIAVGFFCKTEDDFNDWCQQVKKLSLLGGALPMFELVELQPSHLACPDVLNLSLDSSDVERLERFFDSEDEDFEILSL

SMILES: CCCCCn1c(=O)c(C(=O)Nc2c(C)n(C)n(-c3ccccc3)c2=O)c(O)c2ccccc21
IC50 [1]: > 47.1 µM (inactive)
EC50 [2]: > 53 µM (inactive)
IC50 [3]: > 100 µM (inactive)

IC50 (Cysteine protease ATG4B): 15 µM (active)
IC50 (Leucine aminopeptidase): 10.6 µM (active)
IC50 (Phospholipase A2): 11 µM (active)
SMILES: CCOc1cc(/C=C2/SC(=O)N(CC(=O)N3CCc4ccccc4C3)C2=O)ccc1OCC(=O)O

IC50 [5]: > 99 µM (inactive)
IC50 [6]: > 99 µM (inactive)
IC50 (Caspase-3): > 99 µM (inactive)
SMILES: Oc1ccc(Br)cc1/C=N/Nc1cc(N2CCCC2)nc(N2CCCC2)n1
IC50 [4]: > 99 µM (inactive)
